Source: patent US20140303182A1, “PHARMACEUTICALLY ACCEPTABLE SALTS OF QUINOLINONE COMPOUNDS HAVING IMPROVED PHARMACEUTICAL PROPERTIES” (NOVARTIS AG, priority 2003, published 2014)
“And” between values parts separate entries of the source, which are not always exact repeats. Equal entries are not always repeated. Where two headings read alike, the source gives them in different places.

How the values were obtained:
[1] = Chemical stability, solid state (HPLC); conditions: solid state
[2] = Crystallinity by XRPD; assay type: physicochemical
Method: XRPD analyses were carried out on a Shimadzu XRD-6000 X-ray powder diffractometer using Cu Kα radiation. The instrument is equipped with a fine focus X-ray tube. The tube voltage and amperage were set to 40 kV and 40 mA, respectively. The divergence and scattering slits were set at 1° and the receiving slit was set at 0.15 mm. Diffracted radiation was detected by a NaI scintillation detector. A theta-two theta continuous scan at 3°/minute (0.4 seconds/0.02° step) from […] was used.

[3] = Aqueous equilibrium solubility and pH at saturation; assay type: physicochemical; conditions: for Solubility: water, 24 hours at 22° C., HPLC, free base equivalent
[4] = Hygroscopicity, moisture sorption/desorption; assay type: physicochemical
[5] = Compaction studies; assay type: physicochemical; conditions: 200 mg at 5000 psi; for Tensile strength of compact: SC = Strong Cobb
[6] = Crystal morphology, polarized light microscope; assay type: physicochemical; conditions: 10× and 40× magnification
[7] = Chemical stability, solution state (HPLC); assay type: physicochemical
[8] = 30° C./60% Relative humidity, listed as Sulphate
[9] = 40° C./70% Relative humidity, listed as Sulphate

SMILES: CN1CCN(c2ccc3nc(-c4c(N)c5c(F)cccc5[nH]c4=O)[nH]c3c2)CC1 [Phosphate, 4-Amino-5-fluoro-3-[6-(4-methylpiperazin-1-yl)-1H-benzimidazol-2-yl]-1H-quinolin-2-one]
- Area % at Time = 0 ([1]; 30° C./60% Relative humidity): 98.47 Area %
- Area % at Time = 6 weeks ([1]; 30° C./60% Relative humidity): 99.28 Area %
- Area % at Time = 0 ([1]; 40° C./70% Relative humidity): 98.84 Area %
- Area % at Time = 6 weeks ([1]; 40° C./70% Relative humidity): 98.86 Area %
- Crystallinity [2]: mixture of crystalline
- Crystallinity ([2]; listed as phosphate): mixture of crystalline and amorphous material
- Solubility [3]: 13.8 mg FB/mL

SMILES: CN1CCN(c2ccc3nc(-c4c(N)c5c(F)cccc5[nH]c4=O)[nH]c3c2)CC1 [Mono-malate, 4-Amino-5-fluoro-3-[6-(4-methylpiperazin-1-yl)-1H-benzimidazol-2-yl]-1H-quinolin-2-one]
- hygroscopicity (verdict) [4]: non-hygroscopic
- Forms Compact [5]: form compacts
- Morphology [6]: needle
- Area % at Time = 0 ([7]; 5° C.): 98.70 Area %
- Area % at Time = 7 days ([7]; 5° C.): 98.69 Area %
- Area % at Time = 0 ([7]; ambient temperature): 98.70 Area %
- Area % at Time = 7 days ([7]; ambient temperature): 98.65 Area %
- Crystallinity [2]: crystalline
- Crystallinity ([2]; listed as L-Malate): mixture of crystalline
- Crystallinity ([2]; listed as L-malate): mixture of crystalline and amorphous material
- Solubility ([3]; listed as L-Malate): 69 mg FB/mL

SMILES: CN1CCN(c2ccc3nc(-c4c(N)c5c(F)cccc5[nH]c4=O)[nH]c3c2)CC1 [Mono-mesylate, 4-Amino-5-fluoro-3-[6-(4-methylpiperazin-1-yl)-1H-benzimidazol-2-yl]-1H-quinolin-2-one]
- Area % at Time = 0 ([1]; 30° C./60% Relative humidity): 98.80 Area %
- Area % at Time = 6 weeks ([1]; 30° C./60% Relative humidity): 98.68 Area %
- Area % at Time = 0 ([1]; 40° C./70% Relative humidity): 98.89 Area %
- Area % at Time = 6 weeks ([1]; 40° C./70% Relative humidity): 98.7 Area %
- Forms Compact [5]: form compacts
- Tensile strength of compact ([5]; listed as Mesylate-trial 1): 6.9 SC
- Tensile strength of compact ([5]; listed as Mesylate-trial 2): 17.9 SC
- Forms Compact ([5]; listed as Mesylate-trial 1): Yes
- Thickness of compact ([5]; listed as Mesylate-trial 1): 2.77 mm
- Forms Compact ([5]; listed as Mesylate-trial 2): Yes
- Thickness of compact ([5]; listed as Mesylate-trial 2): 2.87 mm
- Morphology [6]: varies from plate to needle
- Morphology ([6]; listed as Mesylate-trial 1): Plate
- Morphology ([6]; listed as Mesylate-trial 2): Needle
- Area % at Time = 0 ([7]; 5° C.): 98.70 Area %
- Area % at Time = 7 days ([7]; 5° C.): 98.76 Area %
- Area % at Time = 0 ([7]; ambient temperature): 98.70 Area %
- Area % at Time = 7 days ([7]; ambient temperature): 98.77 Area %
- Crystallinity [2]: crystalline
- Crystallinity ([2]; listed as Mesylate): mixture of crystalline
- Crystallinity ([2]; listed as mesylate): crystalline
- Crystallinity ([2]; listed as mono-mesylate): mixture of crystalline and amorphous material
- Solubility [3]: 185 mg FB/mL and 180 mg FB/mL
- Solubility ([3]; listed as Mesylate): 22.3 mg FB/mL

SMILES: CN1CCN(c2ccc3nc(-c4c(N)c5c(F)cccc5[nH]c4=O)[nH]c3c2)CC1 [Bis-Lactate, 4-Amino-5-fluoro-3-[6-(4-methylpiperazin-1-yl)-1H-benzimidazol-2-yl]-1H-quinolin-2-one]
- Area % at Time = 0 ([1]; 30° C./60% Relative humidity): 98.71 Area %
- Area % at Time = 6 weeks ([1]; 30° C./60% Relative humidity): 98.64 Area %
- Area % at Time = 0 ([1]; 40° C./70% Relative humidity): 98.99 Area %
- Area % at Time = 6 weeks ([1]; 40° C./70% Relative humidity): 97.92 Area %
- Crystallinity [2]: mixture of crystalline
- Crystallinity ([2]; listed as bis-lactate): mixture of crystalline and amorphous material
- Solubility [3]: 304 mg FB/mL

SMILES: CN1CCN(c2ccc3nc(-c4c(N)c5c(F)cccc5[nH]c4=O)[nH]c3c2)CC1 [Sulfate, 4-Amino-5-fluoro-3-[6-(4-methylpiperazin-1-yl)-1H-benzimidazol-2-yl]-1H-quinolin-2-one]
- Area % at Time = 0 [1, 8]: 98.75 Area %
- Area % at Time = 6 weeks [1, 8]: 99.39 Area %
- Area % at Time = 0 [1, 9]: 98.96 Area %
- Area % at Time = 6 weeks [1, 9]: 98.9 Area %
- Crystallinity [2]: mixture of crystalline
- Crystallinity ([2]; listed as sulfate): mixture of crystalline and amorphous material
- Solubility [3]: 19.7 mg FB/mL

SMILES: CN1CCN(c2ccc3nc(-c4c(N)c5c(F)cccc5[nH]c4=O)[nH]c3c2)CC1 [Mono-tartrate, 4-Amino-5-fluoro-3-[6-(4-methylpiperazin-1-yl)-1H-benzimidazol-2-yl]-1H-quinolin-2-one]
- Crystallinity [2]: crystalline
- Crystallinity ([2]; listed as L-Tartrate): mixture of crystalline
- Crystallinity ([2]; listed as L-tartrate): mixture of crystalline and amorphous material
- Solubility ([3]; listed as L-Tartrate): 103.4 mg FB/mL

SMILES: CN1CCN(c2ccc3nc(-c4c(N)c5c(F)cccc5[nH]c4=O)[nH]c3c2)CC1 (racemic) [Mono-lactate, 4-Amino-5-fluoro-3-[6-(4-methylpiperazin-1-yl)-1H-benzimidazol-2-yl]-1H-quinolin-2-one]
- Area % at Time = 0 ([1]; 30° C./60% Relative humidity): 98.41 Area %
- Area % at Time = 6 weeks ([1]; 30° C./60% Relative humidity): 99.04 Area %
- Area % at Time = 0 ([1]; 40° C./70% Relative humidity): 98.46 Area %
- Area % at Time = 6 weeks ([1]; 40° C./70% Relative humidity): 98.55 Area %
- hygroscopicity (verdict) [4]: non-hygroscopic
- Forms Compact [5]: form compacts
- Tensile strength of compact ([5]; listed as Lactate-trial 1): 13.8 SC
- Tensile strength of compact ([5]; listed as Lactate-trial 2): 17.9 SC
- Tensile strength of compact ([5]; listed as Lactate-trial 3): 16.1 SC
- Forms Compact ([5]; listed as Lactate-trial 1): Yes
- Thickness of compact ([5]; listed as Lactate-trial 1): 3.06 mm
- Forms Compact ([5]; listed as Lactate-trial 2): Yes
- Thickness of compact ([5]; listed as Lactate-trial 2): 2.92 mm
- Forms Compact ([5]; listed as Lactate-trial 3): Yes
- Thickness of compact ([5]; listed as Lactate-trial 3): 2.97 mm
- Morphology ([6]; listed as Lactate-trial 1): Plate
- Morphology ([6]; listed as Lactate-trial 2): Plate
- Morphology ([6]; listed as Lactate-trial 3): Plate
- Morphology ([6]; listed as lactate salts): plate
- Area % at Time = 0 ([7]; 5° C.): 98.80 Area %
- Area % at Time = 7 days ([7]; 5° C.): 98.60 Area %
- Area % at Time = 0 ([7]; ambient temperature): 98.80 Area %
- Area % at Time = 7 days ([7]; ambient temperature): 98.71 Area %
- Crystallinity [2]: crystalline
- Crystallinity ([2]; listed as DL-lactate): crystalline
- Crystallinity ([2]; listed as Lactate): mixture of crystalline
- Crystallinity ([2]; listed as mono-DL-lactate): mixture of crystalline and amorphous material
- solubility in water ([3]; water / distilled water, listed as lactate salt): about 330 mg/mL
- Solubility [3]: 182 mg FB/mL and 202 mg FB/mL and 196 mg FB/mL and 330 mg FB/mL and 216 mg FB/mL
- Solubility ([3]; listed as Lactate): 34.2 mg FB/mL
